Experimental data: publication PMC2707030 (Clinical cancer research : an official journal of the …, 2009)

Columns and labels:
[1] = rats; cited from earlier work
[2] = test system: ATP-binding cassette transporter ABCB1 (P-glycoprotein, MDR1); details: cited from earlier work
[3] = cited from earlier work
[4] = Population pharmacokinetics; assay type: in vivo, human
[5] = nonparametric bootstrap, 1342 converged of 1500 runs, 98 patients, final model

SMILES: C/C=C1\NC(=O)[C@H]2CSSCC/C=C/[C@H](CC(=O)N[C@H](C(C)C)C(=O)N2)OC(=O)[C@H](C(C)C)NC1=O [romidepsin]
- Fraction of the dose excreted into the bile [1]: 66%
- Substrate of ABCB1 [2]: substrate
- Total clearance reported in adults ([3]; dose 13 mg/m^2): 4.8 L/h/m^2
- Mean CL reported in adults ([3]; dose 17.8 mg/m^2): 10.5 L/h/m^2
- CL, non-carriers of ABCB1 2677 GA/AA ([4]; difference to carriers did not reach statistical criteria (ΔOFV = 3.4)): 16 L/h
- Estimated elimination half-life ([4]; following 4-hour infusion, 14 or 18 mg/m^2, final two-compartment model): 3.5 h
- CL, carriers of ABCB1 2677 GA/AA ([4]; n=7, difference to non-carriers did not reach statistical criteria (ΔOFV = 3.4)): 13 L/h
- CL, bootstrap analysis median (%RSE) [4, 5]: 15.9 (6.2) L/h
- Q, bootstrap analysis median (%RSE) [4, 5]: 1.01 (14.7) L/h
- V1, bootstrap analysis median (%RSE) [4, 5]: 9.71 (8.9) L
- V2, bootstrap analysis median (%RSE) [4, 5]: 4.73 (11.1) L
